# In PubChem BioAssay AID2060625 (Molecular Pharmacology Branch, DTP, NCI, 2025):
# Tested on: 186277-243-T-J2-PDC spheroids with HUVEC/MSC, viability
# Assay: Anticancer human tumor 186277-243-T-J2-PDC patient-derived colon adenocarcinoma cell line growth inhibition [CLK]
# Conditions: for IC50: curve of first compound; for viability, T/C: stronger effect = lower value
# Source text: A high-throughput screen of multi-cell type tumor spheroids was designed to identify active combinations of […] and targeted small molecules. Complex spheroids include a stromal component modeled by human endothelial cells (HUVEC) and fibroblasts modeled by human mesenchymal stem cells (MSCs). The concentration ranges selected for each drug and investigational agent were based upon clinically achievable concentrations if the clinical Cmax of the agent was known.
# Compounds. The drugs and investigational agents: cirtuvivint (SM08502; NSC835563), CC-671 (NSC850746), vemurafenib (NSC761431), tapotoclax (NSC804041), sotorasib (NSC818433), adagrasib (NSC831453), MRTX-1133 (NSC836407), BAY2416964 (NSC825713), copanlisib (NSC816437), inavolisib (NSC800729), abemaciclib (NSC768073), osimertinib (NSC779217), entinostat (NSC756642), eltanexor (KPT-8602, NSC794443), venetoclax (NSC766270), ceralasertib (NSC777638), bortezomib (NSC756655), olaparib (NSC753686), talazoparib (NSC767125), alisertib (NSC759677), peposertib (NSC802822), gemcitabine (NSC613327), 5-fluorouracil (NSC19893), SN-38 (NSC673596), oxaliplatin (NSC266046), paclitaxel (NSC125973), and doxorubicin (NSC123127), were obtained from the National Cancer Institute (NCI) Developmental Therapeutics Program Chemical Repository. The FDA-approved anticancer drug set is available from the Developmental Therapeutics Program at https://dtp.cancer.gov/organization/dscb/obtaining/available plates.htm. […] The stock solutions were prepared in dimethyl sulfoxide (DMSO, Sigma-Aldrich, St. Louis, MO, cat. D2650), except for the platinum complexes which were prepared in saline (Quality Biological, Gaithersburg, MD, cat. 114-055-101), at 800-fold the tested concentration and stored at -70 degrees C prior to their use. All drugs and investigational agents were tested over a range starting from a high concentration at or near the clinical Cmax and decreasing in half-log increments. If the clinical Cmax for an agent had not been determined, the highest concentration tested was 10 microM.
# Cell Culture. All cells were maintained in an incubator at 37 degrees C and 5% CO2 with 95% humidity. The PDC lines were cultured according to standard operating procedures established by the NCI PDMR. Briefly, all PDCs were thawed and cultured in Matrigel-coated flasks prepared with a working solution of 1X Ham's F-12 nutrient mix, without supplementation (Invitrogen, Waltham, MA, cat. 11765054), 100 U/mL penicillin-streptomycin (Invitrogen, cat. 15140122), and 2.5% Matrigel (Corning Inc., Corning, NY, cat. 354248) for the first three passages. The 947758-054-R-J2-PDC line was cultured in 6B/Colon 1A media, which includes advanced DMEM/F-12 (Thermo Fisher Scientific, cat. 12634028), 10 mM HEPES (Thermo Fisher Scientific, cat. 15630080), 1X GlutaMAX supplement (Thermo Fisher Scientific, cat. 35050061), 0.1 mg/mL primocin (InvivoGen, cat. ant-pm-2), 10% defined fetal bovine serum, heat inactivated (HyClone Laboratories Inc., cat. SH30070.03HI), 1.25 mM N-Acetyl-L-cysteine (Sigma-Aldrich, cat. A9165), 10 mM nicotinamide (Sigma-Aldrich, cat. N0636), 1X B-27 supplement (Thermo Fisher Scientific, cat. 17504044), 1X N-2 supplement (Thermo Fisher Scientific, cat. 17502048), and 10 microM Y-27632 dihydrochloride (Tocris Bioscience, cat. 1254). The 876862-298-R-J1-PDC was cultured in 6E media, which includes all 6B/Colon 1A media components plus 50% L-WRN conditioned media (ATCC, cat. CRL-3276), 50 ng/mL recombinant human EGF recombinant protein (hEGF; Thermo Fisher Scientific, cat. PHG0311), 10 ng/mL recombinant human fibroblast growth factor 10 (hGFG-10; PeproTech, cat. 100-26), 1 ng/mL recombinant human fibroblast growth factor 2 (hFGF-2; PeproTech, cat. 100-18B), and 1 µM prostaglandin E2 (PGE2; Tocris, cat. 2296). The 227483-062-R1-J1-PDC line was cultured in Panc media, containing all 6E components except hFGF-2, with the addition of 500 nM SB-431542 (Selleckchem, cat. S1067) and 10 nM gastrin (Tocris, cat. 3006). […]
# [1] = second compound 0.0316 µM, first compound 0.0316 µM
# [2] = second compound 0.0316 µM, first compound 0.1 µM
# [3] = second compound 0.0316 µM, first compound 0.316 µM
# [4] = second compound 0.0316 µM, first compound 1 µM
# [5] = second compound 0.0316 µM, first compound 3.16 µM
# [6] = second compound 0.0316 µM, first compound 10 µM
# [7] = second compound 0.1 µM, first compound 0.0316 µM
# [8] = second compound 0.1 µM, first compound 0.1 µM
# [9] = second compound 0.1 µM, first compound 0.316 µM
# [10] = second compound 0.1 µM, first compound 1 µM
# [11] = second compound 0.1 µM, first compound 3.16 µM
# [12] = second compound 0.1 µM, first compound 10 µM
# [13] = second compound 0.316 µM, first compound 0.0316 µM
# [14] = second compound 0.316 µM, first compound 0.1 µM
# [15] = second compound 0.316 µM, first compound 0.316 µM
# [16] = second compound 0.316 µM, first compound 1 µM
# [17] = second compound 0.316 µM, first compound 3.16 µM
# [18] = second compound 0.316 µM, first compound 10 µM
# [19] = second compound 1 µM, first compound 0.0316 µM
# [20] = second compound 1 µM, first compound 0.1 µM
# [21] = second compound 1 µM, first compound 0.316 µM
# [22] = second compound 1 µM, first compound 1 µM
# [23] = second compound 1 µM, first compound 3.16 µM
# [24] = second compound 1 µM, first compound 10 µM
# [25] = second compound 3.16 µM, first compound 0.0316 µM
# [26] = second compound 3.16 µM, first compound 0.1 µM
# [27] = second compound 3.16 µM, first compound 0.316 µM
# [28] = second compound 3.16 µM, first compound 1 µM
# [29] = second compound 3.16 µM, first compound 3.16 µM
# [30] = second compound 3.16 µM, first compound 10 µM
# [31] = second compound 10 µM, first compound 0.0316 µM
# [32] = second compound 10 µM, first compound 0.1 µM
# [33] = second compound 10 µM, first compound 0.316 µM
# [34] = second compound 10 µM, first compound 1 µM
# [35] = second compound 10 µM, first compound 3.16 µM
# [36] = second compound 10 µM, first compound 10 µM
# 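Also: compound exposure lasted seven days before readout.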
# 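For viability, T/C in this document: 100% = DMSO vehicle control wells.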
compound,measurement,setting,value
CCCS(=O)(=O)Nc1ccc(F)c(C(=O)c2c[nH]c3ncc(-c4ccc(Cl)cc4)cc23)c1F + CN1CCN(c2cc(C(=O)Nc3cc4cc(-c5cnn(C)c5)ccc4cn3)ccn2)CC1,IC50,second compound 0.0316 µM,> 10000 nM
same,IC50,second compound 0.1 µM,> 10000 nM
same,IC50,second compound 0.316 µM,< 31.6 nM
same,IC50,second compound 1 µM,< 31.6 nM
same,IC50,second compound 3.16 µM,< 31.6 nM
same,IC50,second compound 10 µM,< 31.6 nM
same,"viability, T/C",[1],109%
same,"viability, T/C",[2],104%
same,"viability, T/C",[3],103%
same,"viability, T/C",[4],97.4%
same,"viability, T/C",[5],113%
same,"viability, T/C",[6],89.6%
same,"viability, T/C",[7],87.4%
same,"viability, T/C",[8],82.3%
same,"viability, T/C",[9],86.7%
same,"viability, T/C",[10],99.4%
same,"viability, T/C",[11],95.9%
same,"viability, T/C",[12],69.2%
same,"viability, T/C",[13],30.5%
same,"viability, T/C",[14],30.9%
same,"viability, T/C",[15],31.8%
same,"viability, T/C",[16],32.1%
same,"viability, T/C",[17],22.5%
same,"viability, T/C",[18],20.1%
same,"viability, T/C",[19],0.48%
same,"viability, T/C",[20],0.83%
same,"viability, T/C",[21],1.17%
same,"viability, T/C",[22],1.25%
same,"viability, T/C",[23],0.57%
same,"viability, T/C",[24],0.46%
same,"viability, T/C",[25],1.11%
same,"viability, T/C",[26],1.22%
same,"viability, T/C",[27],2.84%
same,"viability, T/C",[28],1.64%
same,"viability, T/C",[29],2.61%
same,"viability, T/C",[30],1.65%
same,"viability, T/C",[31],0.65%
same,"viability, T/C",[32],0.72%
same,"viability, T/C",[33],1.61%
same,"viability, T/C",[34],0.95%
same,"viability, T/C",[35],1.27%
same,"viability, T/C",[36],0.74%
COC1C=CCC(C)C(C)S(=O)(=O)NC(=O)c2ccc3c(c2)N(CC2CCC21)CC1(CCCc2cc(Cl)ccc21)CO3 (centres undefined) + CN1CCN(c2cc(C(=O)Nc3cc4cc(-c5cnn(C)c5)ccc4cn3)ccn2)CC1,IC50,second compound 0.0316 µM,4120 nM
same,IC50,second compound 0.1 µM,1120 nM
same,IC50,second compound 0.316 µM,< 31.6 nM
same,IC50,second compound 1 µM,< 31.6 nM
same,IC50,second compound 3.16 µM,< 31.6 nM
same,IC50,second compound 10 µM,< 31.6 nM
same,"viability, T/C",[1],102%
same,"viability, T/C",[2],97.9%
same,"viability, T/C",[3],103%
same,"viability, T/C",[4],87.3%
same,"viability, T/C",[5],64.4%
same,"viability, T/C",[6],3.46%
same,"viability, T/C",[7],87.5%
same,"viability, T/C",[8],91.2%
same,"viability, T/C",[9],74%
same,"viability, T/C",[10],54.3%
same,"viability, T/C",[11],21.4%
same,"viability, T/C",[12],2.36%
same,"viability, T/C",[13],25.6%
same,"viability, T/C",[14],30.4%
same,"viability, T/C",[15],16.9%
same,"viability, T/C",[16],5.75%
same,"viability, T/C",[17],3.04%
same,"viability, T/C",[18],1.3%
same,"viability, T/C",[19],1.87%
same,"viability, T/C",[20],0.6%
same,"viability, T/C",[21],0.97%
same,"viability, T/C",[22],0.6%
same,"viability, T/C",[23],0.3%
same,"viability, T/C",[24],0.24%
same,"viability, T/C",[25],1.99%
same,"viability, T/C",[26],0.97%
same,"viability, T/C",[27],1.2%
same,"viability, T/C",[28],0.98%
same,"viability, T/C",[29],1.26%
same,"viability, T/C",[30],0.58%
same,"viability, T/C",[31],0.93%
same,"viability, T/C",[32],1.11%
same,"viability, T/C",[33],1.01%
same,"viability, T/C",[34],0.62%
same,"viability, T/C",[35],1.39%
same,"viability, T/C",[36],0.26%
